Measured values published in ChEMBL document CHEMBL4354883, “Design, Synthesis, and Biological Evaluation of HSP90 Inhibitor-SN38 Conjugates for Targeted Drug Accumulation” (J Med Chem, 2020).
Activity calls are given as the source filed them. No cut-off for these calls is given here.

Columns and labels:
[1] = Toxicity in mouse xenografted with human HCT116 cells assessed as body weight loss at 50 mg/kg, iv for 5 consecutive days per week and measured every 3 to 4 days up to 14 days relative to control; assay type: organism-based; details: in vivo
[2] = Drug uptake in human A549 cells assessed as endocytosis-mediated total cellular drug internalization at 5 uM after 12 hrs by LC-MS/MS analysis relative to SN38; assay type: ADME, cell-based; details: a549, 12 h
[3] = Half life in human liver microsomes at 1 uM preincubated for 5 mins followed by NADPH addition and measured up to 360 mins by LC-MS/MS analysis; assay type: ADME, Microsome
[4] = target: Heat shock protein HSP 90-alpha (Homo sapiens, UniProt P07900); experiment: biochemical
Description: Inhibition of recombinant human full length HSP90 alpha expressed in Escherichia coli cells after 1 hr by fluorescence polarization assay

[5] = Half life in mouse plasma at 25 uM by HPLC analysis; assay type: ADME, cell-free
Heat shock protein HSP90 = Heat shock protein HSP90 (Homo sapiens, UniProt P07900+P08238); experiment: Drug uptake in human A549 cells assessed as eHSP90-mediated drug internalization by measuring blue fluorescence in PBS solution at 5 uM after 1 to 12 hrs by confocal laser scanning microscopic analysis; assay type: ADME, cell-based; details: a549, 5 µM, TDE = time-dependent effect
[6] = Metabolic stability in human liver microsomes assessed as compound remaining at 1 uM preincubated for 5 mins followed by NADPH addition and measured after 60 mins by LC-MS/MS analysis; assay type: ADME, Microsome; details: read-out: Stability
A549 [7] = experiment: Antiproliferative activity against human A549 cells assessed as reduction in cell viability after 72 hrs by SRB assay; assay type: functional, cell-based; details: A549, 72 h
[8] = Apparent volume of distribution at steady state in BALB/c mouse at 50 mg/kg, iv after 5 to 24 hrs by LC-MS/MS analysis; assay type: ADME, organism-based; details: in vivo, read-out: Vdss(app)
HCT-116 [9] = experiment: Antitumor activity against human HCT116 cells xenografted in mouse assessed as reduction in tumor volume at 50 mg/kg, iv for 5 consecutive days per week and measured every 3 to 4 days up to 14 days by microcaliper analysis relative to control; assay type: functional
A549 [10] = experiment: Ratio of prodrug release in human A549 cells assessed as increase in 7-ethyl-10-hydroxycamptothecin level at 5 uM after 12 hrs by LC-MS/MS analysis to prodrug release in human A549 cells assessed as increase in 7-ethyl-10-hydroxycamptothecin level at 5 uM after 1 hr by LC-MS/MS analysis; assay type: ADME, cell-based; details: a549, 5 µM
[11] = Drug uptake in human A549 cells assessed as blue shift in absorption spectrum at 5 uM by UV-visible absorption spectral analysis; assay type: ADME, cell-based; details: a549, 5 µM
[12] = Drug uptake in human A549 cells assessed as blue fluorescence at 5 uM after 12 hrs by confocal laser scanning microscopic analysis; assay type: ADME, cell-based; details: a549, 12 h
HCT-116 [13] = experiment: Induction of cell cycle arrest in human HCT116 cells assessed as accumulation at G2/M phase after 24 hrs by RNase A/PI-staining based flow cytometric analysis; assay type: functional
[14] = Half life of compound in PBS buffer at pH 6.0 at 50 uM by HPLC analysis; assay type: physicochemical
[15] = Half life in human plasma at 25 uM by HPLC analysis; assay type: ADME, cell-free
CAPAN-1 [16] = experiment: Antiproliferative activity against human Capan1 cells assessed as reduction in cell viability after 72 hrs by SRB assay; assay type: functional, cell-based; details: CAPAN-1, 72 h
[17] = Half life in BALB/c mouse at 50 mg/kg, iv after 5 to 24 hrs by LC-MS/MS analysis; assay type: ADME, organism-based; details: in vivo
[18] = Drug uptake in human A549 cells assessed as eHSP90-mediated total cellular drug internalization at 5 uM after 12 hrs by LC-MS/MS analysis; assay type: ADME, cell-based; details: a549, 12 h
[19] = Intrinsic clearance in human liver microsomes at 1 uM preincubated for 5 mins followed by NADPH addition and measured up to 360 mins by LC-MS/MS analysis; assay type: ADME, Microsome; details: 6 h
[20] = Drug uptake in human A549 cells assessed as maximum emission peaks at 430 nm at 5 uM by fluorescence emission spectral analysis; assay type: ADME, cell-based; details: a549, 5 µM
HCT-116 [21] = experiment: Antitumor activity against human HCT116 cells xenografted in mouse assessed as reduction in tumor growth at 50 mg/kg, iv for 5 consecutive days per week and measured every 3 to 4 days up to 14 days; assay type: functional, organism-based
MIA PaCa-2 = experiment: Antiproliferative activity against human MIAPaCa2 cells assessed as reduction in cell viability after 72 hrs by SRB assay; assay type: functional, cell-based; details: MIA PaCa-2, 72 h
[22] = Half life of compound in PBS buffer at pH 7.4 at 50 uM by HPLC analysis; assay type: physicochemical
HCT-116 [23] = experiment: Antitumor activity against human HCT116 cells xenografted in mouse assessed as tumor weight at 50 mg/kg, iv for 5 consecutive days per week and measured every 3 to 4 days up to 14 days (reference value: 1.73 +/- 0.53 g); assay type: functional
A549 [24] = experiment: Downregulation of TOP1 expression in human A549 cells after 24 hrs by Western blot analysis; assay type: functional, cell-based
CAPAN-1 [25] = experiment: Induction of cell cycle arrest in human Capan1 cells assessed as accumulation at G2/M phase after 24 hrs by RNase A/PI-staining based flow cytometric analysis; assay type: functional
[26] = Clearance in BALB/c mouse at 50 mg/kg, iv after 5 to 24 hrs by LC-MS/MS analysis; assay type: ADME, organism-based; details: in vivo
L02 = experiment: Cytotoxicity agains human HL7702 cells assessed as reduction in cell viability after 72 hrs by SRB assay; assay type: cell-based; details: L02, 72 h
HCT-116 [27] = experiment: Antiproliferative activity against human HCT116 cells assessed as reduction in cell viability after 72 hrs by SRB assay; assay type: functional, cell-based; details: HCT-116, 72 h
[28] = AUC(0 to infinity) in BALB/c mouse at 50 mg/kg, iv after 5 to 24 hrs by LC-MS/MS analysis; assay type: ADME, organism-based; design: dose 50 mg/kg, route intravenous, time infinity; details: in vivo
[29] = Drug uptake in human A549 cells assessed as endocytosis-mediated total cellular drug internalization at 5 uM after 12 hrs by LC-MS/MS analysis relative to irinotecan; assay type: ADME, cell-based; details: a549, 12 h
A549 [30] = experiment: Induction of cell cycle arrest in human A549 cells assessed as accumulation at G2/M phase after 24 hrs by RNase A/PI-staining based flow cytometric analysis; assay type: functional
HCT-116 [31] = experiment: Downregulation of TOP1 expression in human HCT116 cells after 24 hrs by Western blot analysis; assay type: functional, cell-based
CAPAN-1 [32] = experiment: Antitumor activity against human Capan1 cells xenografted in mouse assessed as reduction in tumor volume at 50 mg/kg, iv for every 2 days and measured twice per week by microcaliper method relative to control; assay type: functional
[33] = Prodrug release in human A549 cells assessed as increase in 7-ethyl-10-hydroxycamptothecin level at 5 uM after 1 to 12 hrs by LC-MS/MS analysis; assay type: ADME, cell-based; details: a549, 5 µM
[34] = Toxicity in lung of mouse xenografted with human Capan1 cells assessed as pathological changes at 50 mg/kg, iv for every 2 days measured at 2 hrs post-last dose by H and E staining based analysis; assay type: organism-based; details: in vivo

| Compound | Activity [1] | fold change (FC) [2] | half-life at 1 µM [3] | IC50 [4] | half-life at 25 µM [5] | Drug uptake (Heat shock protein HSP90) | remaining at 1 h, 1 µM [6] | IC50 (A549 [7]) | Vd [8] | T/C (HCT-116 [9]) | Ratio (A549 [10]) | Drug uptake [11] | Drug uptake [12] | Activity (HCT-116 [13]) | half-life at 50 µM [14] | half-life at 25 µM [15] | IC50 (CAPAN-1 [16]) | half-life [17] | Drug uptake [18] | CLH [19] | other results |
| --- | --- | --- | --- | --- | --- | --- | --- | --- | --- | --- | --- | --- | --- | --- | --- | --- | --- | --- | --- | --- | --- |
| CCc1c2c(nc3ccc(OC(=O)N4CCC(NC(=O)c5noc(-c6cc(C(C)C)c(O)cc6O)c5-c5ccc(CN6CCOCC6)cc5)CC4)cc13)-c1cc3c(c(=O)n1C2)COC(=O)[C@]3(O)CC | < 20% | 1.6 to 1.9 | 156 min | 164 nM | > 1440 min | Tde | 87% | 1110 nM | 0.103 L/kg | 33.8% | 3.7 | Active | Active | Dose-dependent effect | > 1440 min | > 1440 min | 6.8 µM | 103 min | Active | 4.9 mL/min/kg | Drug uptake [20]: Active; Activity (HCT-116 [21]): Active; IC50 (MIA PaCa-2): 644 nM; half-life at 50 µM [22]: > 1440 min; Activity (HCT-116 [23]): 0.47 g; TOP1 downregulation (A549 [24]): Dose-dependent effect; Activity (CAPAN-1 [25]): Dose-dependent effect; clearance [26]: 6.91 mL/min/kg; IC50 (L02): 7.36 µM; IC50 (HCT-116 [27]): 614 nM; AUC(0-inf) [28]: 172 µg·h/mL; fold change (FC) [29]: 2.8 to 3.8; Activity (A549 [30]): Dose-dependent effect; inhibition (HCT-116 [31]): Dose-dependent effect |
| CCc1c2c(nc3ccc(O)cc13)-c1cc3c(c(=O)n1C2)COC(=O)[C@@]3(CC)OC(=O)CNC(=O)c1noc(-c2cc(C(C)C)c(O)cc2O)c1-c1ccc(CN2CCOCC2)cc1 | < 20% | 1.6 to 1.9 | 126 min | 72 nM | 630 min | Tde | 80% | 56 nM | 0.101 L/kg | 16.7% | 4.3 | Active | Active | Dose-dependent effect | > 1440 min | 780 min | 0.036 µM | 78.6 min | Active | 5.7 mL/min/kg | T/C (CAPAN-1 [32]): 1.86%; Drug metabolism [33]: Metabolite_Detected; Drug uptake [20]: Active; Activity (HCT-116 [21]): Active; IC50 (MIA PaCa-2): 46 nM; half-life at 50 µM [22]: 600 min; Activity (HCT-116 [23]): 0.32 g; TOP1 downregulation (A549 [24]): Dose-dependent effect; Activity (CAPAN-1 [25]): Dose-dependent effect; clearance [26]: 5.81 mL/min/kg; IC50 (L02): 6.87 µM; IC50 (HCT-116 [27]): 22 nM; AUC(0-inf) [28]: 148 µg·h/mL; Activity [34]: Non-Toxic; fold change (FC) [29]: 2.8 to 3.8; Activity (A549 [30]): Dose-dependent effect; inhibition (HCT-116 [31]): Dose-dependent effect |
